Test results published in US9725457B2, “6-amido derivatives of 4, 5-a epoxymorphinans for the treatment of pain” (Sloan-Kettering Institute for Cancer Research, priority 2010, dated 2017).
Read-outs that look alike come from different tables or passages of the source.

How the values were obtained:
[1] = test system: mice; experiment: Radiant heat tail flick analgesia assay; type: in vivo; conditions: Mus musculus; male CD-i mice, radiant heat tail-flick
Procedure: Tail Flick Analgesia Assays: Male CD-i mice (25-35 g; Charles River Breeding Laboratories, Wilmington, Mass.) were maintained on a 12-hr light/dark cycle with Purina rodent chow and water available ad libitum. Mice were housed in groups of five until testing. Analgesia was determined using the radiant heat tail-flick technique [D'Amour and Smith, J. Pharmacol. Exp. Ther. 72: 74-79 (1941)]. For the tail-flick assay, the latency to withdraw the tail from a focused light stimulus was measured electronically using a photocell. […] Post-treatment tail-flick latencies were determined as indicated for each experiment, and a maximal latency of 10 sec for tail-flick was used to minimize tissue damage. All experiments were replicated at least twice with each group in each experiment containing at least 10 mice and the combined results of all replications presented.

[2] = biological target: T1, MOR (mu opioid receptor), MOR1-CHO (Mus musculus, UniProt P42866); experiment: Competition binding in MOR-CHO, 125I-SMGP1 radioligand
T1 construct: expressed in transfected cells; host or cells: CHO
Procedure: (§1) Receptor-Binding Assays: Competition-binding assays in MOR-CHO (mu), DOR-CHO (delta) and KOR-CHO (kappa) were performed at 25° C. in 50 mM potassium phosphate buffer, pH 7.4, containing 5 mM magnesium sulfate (only in the case of CHO-MOR). Specific binding was defined as the difference between total binding and nonspecific binding, determined in the presence of 8 μM levallorphan. 125I-SMGP1 (IBNtxA) was used as the universal radioligand to determine the relative affinity of drugs in MOR1-CHO, KOR1-CHO and DOR1-CHO. Protein concentrations were generally 20-40 μg/mL, incubation times were 90 minutes for all assays. (Majumdar et al., Bioorg Med Chem Lett. 2011, 21(13), 4001-4004). Kappa3 opioid receptor competition binding assays were carried out in whole brain membrane homogenates, performed at 25° C. in 50 mM potassium phosphate buffer, pH 7.4, containing 5 mM magnesium sulfate for 90 minutes in presence of 100 nM CTAP, 100 nM U50488h and 100 nM DPDPE. ^125I-SMGP1 was used as the radioligand in the assays, typically 500 micrograms of protein and 0.15 nM of the radioligand was used in a 0.5 mL assay. Specific binding was defined as the difference between total binding and nonspecific binding, determined in the presence of 8 μM levallorphan. Protein concentration was determined as described by Lowry et al. [J Biol Chem 1951, 193, 265-275; (1951)] using bovine serum albumin as the standard. Kd, Bmax, and Ki values were calculated by nonlinear regression analysis (GraphPadPrism). […] The “kappa3 opioid receptor” as referred to herein is the receptor first characterized by Clark et al. [J. Pharmacol. Exp. Ther. 251, 461-468 (1989)].

[3] = biological target: T2, DOR (delta opioid receptor), DOR1-CHO (Mus musculus, UniProt P32300); experiment: Competition binding in DOR-CHO, 125I-SMGP1 radioligand
T2 construct: expressed in transfected cells; host or cells: CHO
Procedure: Receptor-Binding Assays: Competition-binding assays in MOR-CHO (mu), DOR-CHO (delta) and KOR-CHO (kappa) were performed at 25° C. in 50 mM potassium phosphate buffer, pH 7.4, containing 5 mM magnesium sulfate (only in the case of CHO-MOR). Specific binding was defined as the difference between total binding and nonspecific binding, determined in the presence of 8 μM levallorphan. […] Protein concentrations were generally 20-40 μg/mL, incubation times were 90 minutes for all assays. […] Specific binding was defined as the difference between total binding and nonspecific binding, determined in the presence of 8 μM levallorphan. […] Kd, Bmax, and Ki values were calculated by nonlinear regression analysis (GraphPadPrism).

[4] = biological target: T3, KOR (kappa opioid receptor), KOR1-CHO (Mus musculus, UniProt P33534); experiment: Competition binding in KOR-CHO, 125I-SMGP1 radioligand
T3 construct: expressed in transfected cells; host or cells: CHO
Procedure: as §1

[5] = MOR-CHO, 125I-SMGP1, 25° C., 90 minutes, read-out: Ki (nM) MOR
[6] = DOR-CHO, 125I-SMGP1, 25° C., 90 minutes, read-out: Ki (nM) DOR
[7] = KOR-CHO, 125I-SMGP1, 25° C., 90 minutes, read-out: Ki (nM) KOR

| Compound | ED50 [1] [mg/kg] | Ki [2, 5] [nM] | Ki [3, 6] [nM] | Ki [4, 7] [nM] | Ki [2] [nM] | Ki [3] [nM] | Ki [4] [nM] |
| --- | --- | --- | --- | --- | --- | --- | --- |
| CN1CCC23c4c5ccc(O)c4OC2C(NC(=O)c2cccc(I)c2)CCC3(O)C1C5 (stereo not shown) [SMGP 2] | > 10 |  |  |  |  |  |  |
| C=CCN1CC[C@]23c4c5ccc(O)c4O[C@H]2[C@H](NC(=O)c2cccc(I)c2)CC[C@@]3(O)[C@H]1C5 [SMGP 3] | 0.57 | 0.22 | 2.55 | 0.08 |  |  |  |
| C=CCN1CC[C@]23c4c5ccc(O)c4O[C@H]2[C@@H](NC(=O)c2cccc(I)c2)CC[C@@]3(O)[C@H]1C5 [SMGP 4] | 5 | 5.07 | 7.64 | 12.2 |  |  |  |
| O=C(NC1CCC2(O)C3Cc4ccc(O)c5c4C2(CCN3CC2CCC2)C1O5)c1cccc(I)c1 (stereo not shown) [SMGP 6] |  |  |  |  | 0.88 | 2.38 | 0.67 |
| C=CCN1CCC23c4c5ccc(OC)c4OC2C(NC(=O)c2cccc(I)c2)CCC3(O)C1C5 (stereo not shown) [SMGP 8] | > 10 |  |  |  | > 100 | > 100 | > 100 |
| C=CCN1CCC23c4c5ccc(O)c4OC2C(NC(=O)c2ccccc2I)CCC3(O)C1C5 (stereo not shown) [SMGP 16] | > 10 |  |  |  | 1.56 | 22.8 | 1 |
| C=CCN1CCC23c4c5ccc(O)c4OC2C(NC(=O)c2ccc(I)cc2)CCC3(O)C1C5 (stereo not shown) [SMGP 17] | 0.16 |  |  |  | 0.11 | 3.36 | 0.28 |
| C=CCN1CCC23c4c5ccc(O)c4OC2C(NC(=O)c2cccc(F)c2)CCC3(O)C1C5 (stereo not shown) [SMGP 18] | 3.24 |  |  |  | 0.47 | 18.2 | 2.05 |
| C=CCN1CCC23c4c5ccc(O)c4OC2C(NC(=O)c2cccc(Cl)c2)CCC3(O)C1C5 (stereo not shown) [SMGP 19] | 2.3 |  |  |  | 1.15 | 4.87 | 0.52 |
| C=CCN1CCC23c4c5ccc(O)c4OC2C(NC(=O)c2cccc(Br)c2)CCC3(O)C1C5 (stereo not shown) [SMGP 20] | 1.36 |  |  |  | 3.85 | 23.4 | 1.58 |
| C=CCN1CC[C@]23c4c5ccc(O)c4O[C@H]2[C@H](NC(=O)c2ccccc2)CC[C@@]3(O)[C@H]1C5 [SMGP 21] | 5 | 4.03 | 60.8 | 14.3 |  |  |  |
| C=CCN1CC[C@]23c4c5ccc(O)c4O[C@H]2[C@H](NC(=O)c2cccc(C)c2)CC[C@@]3(O)[C@H]1C5 [SMGP 22] | 2 | 0.29 | 8.24 | 1.62 |  |  |  |
| C=CCN1CC[C@]23c4c5ccc(O)c4O[C@H]2[C@H](NC(=O)c2cccc(C(F)(F)F)c2)CC[C@@]3(O)[C@H]1C5 [SMGP 23] | 0.26 | 0.85 | 2.96 | 0.22 |  |  |  |
| C=CCN1CC[C@]23c4c5ccc(O)c4O[C@H]2[C@H](NC(=O)c2cccc(OC)c2)CC[C@@]3(O)[C@H]1C5 [SMGP 24] | 0.1 | 0.18 | 17.2 | 4.97 |  |  |  |
| C=CCN1CC[C@]23c4c5ccc(O)c4O[C@H]2[C@H](NC(=O)c2cccc(N)c2)CC[C@@]3(O)[C@H]1C5 [SMGP 25] | > 10 | 0.43 | 36 | 0.4 |  |  |  |
| C=CCN1CC[C@]23c4c5ccc(O)c4O[C@H]2[C@H](NC(=O)c2cccc(N(C)C)c2)CC[C@@]3(O)[C@H]1C5 [SMGP 26] | > 10 | 6.39 | 51.4 | 34.9 |  |  |  |
| C=CCN1CC[C@]23c4c5ccc(O)c4O[C@H]2[C@H](NC(=O)c2cccc(O)c2)CC[C@@]3(O)[C@H]1C5 [SMGP 27] | 10.3 | 0.23 | 11.2 | 2.75 |  |  |  |
